Experimental data taken from PubChem BioAssay (NCI).
Values joined by “and” are separate entries in the source; they are usually repeats but may differ in a detail not shown here. Identical values can stand only once.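 Five concentrations, 48 hours, 96-well plates. At the GI50, growth is halved. Definition used: TGI = concentration required for complete inhibition of growth.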

Columns and labels:
Experiment in all cases: NCI anticancer screen, dose series, 48 h
SF-539 CNS = test system: SF-539 CNS
HL-60(TB) leukemia = test system: HL-60(TB) leukemia
SN12C renal = test system: SN12C renal
HCC-2998 colon = test system: HCC-2998 colon
KM12 colon = test system: KM12 colon
COLO 205 colon = test system: COLO 205 colon
SK-OV-3 ovarian = test system: SK-OV-3 ovarian
RXF 393 renal = test system: RXF 393 renal
SNB-78 CNS = test system: SNB-78 CNS
DMS 273 small cell lung = test system: DMS 273 small cell lung

`COc1ccc(-c2nc(-c3nc4ccc(C(F)(F)F)cc4[nH]3)c3ccccn23)cc1` was tested, and the GI50 (SF-539 CNS) was over 100 µM, the TGI (SF-539 CNS) was over 100 µM and the GI50 (HL-60(TB) leukemia) was over 100 µM. For the same molecule, the TGI (HL-60(TB) leukemia) was over 100 µM, the GI50 (SN12C renal) was over 100 µM and the TGI (SN12C renal) was over 100 µM. For the same molecule, the GI50 (HCC-2998 colon) was 51.8 µM, the TGI (HCC-2998 colon) was over 100 µM and the GI50 (KM12 colon) was 36.4 µM. It also gave a TGI (KM12 colon) of over 100 µM, a GI50 (COLO 205 colon) of over 100 µM and a TGI (COLO 205 colon) of over 100 µM. For the same molecule, the GI50 (SK-OV-3 ovarian) was over 100 µM, the TGI (SK-OV-3 ovarian) was over 100 µM and the GI50 (RXF 393 renal) was 30.5 µM. The TGI (RXF 393 renal) was over 100 µM.

With `O=C(c1ccccc1O)c1[nH]c(Cl)c(Cl)c1-n1c(C(=O)c2ccccc2O)cc(Cl)c1Cl` the GI50 (SF-539 CNS) was 1.67 µM and 1.74 µM, the TGI (SF-539 CNS) was 10.1 µM and 10.9 µM and the GI50 (HL-60(TB) leukemia) was 1.19 µM and 0.432 µM. The TGI (HL-60(TB) leukemia) was 5.48 µM and 3.58 µM, the GI50 (SN12C renal) was 0.399 µM and 0.368 µM and the TGI (SN12C renal) was 11.9 µM and 11 µM. For the same molecule, the GI50 (HCC-2998 colon) was 0.994 µM and 0.931 µM, the TGI (HCC-2998 colon) was 12.7 µM and 11.6 µM and the GI50 (KM12 colon) was 1.92 µM and 0.75 µM. The TGI (KM12 colon) was 12.1 µM and 11.9 µM, the GI50 (COLO 205 colon) was 0.703 µM and 0.757 µM and the TGI (COLO 205 colon) was 2.47 µM and 3.17 µM. For the same molecule, the GI50 (SK-OV-3 ovarian) was 1.86 µM and 2.31 µM, the TGI (SK-OV-3 ovarian) was 7.11 µM and 13.1 µM and the GI50 (RXF 393 renal) was 1.09 µM and 0.754 µM. For the same molecule, the TGI (RXF 393 renal) was 9.12 µM and 6.72 µM.

`CN(C)c1ccc(C(=C2C=CC(=[N+](C)C)C=C2)c2ccccc2Cl)cc1` was tested, and the GI50 (SF-539 CNS) was 0.259 µM, the TGI (SF-539 CNS) was 0.951 µM and the GI50 (HL-60(TB) leukemia) was 0.277 µM. It also gave a TGI (HL-60(TB) leukemia) of 3.84 µM, a GI50 (SN12C renal) of 0.239 µM and a TGI (SN12C renal) of 1.67 µM. For the same molecule, the GI50 (HCC-2998 colon) was 0.354 µM, the TGI (HCC-2998 colon) was 1.28 µM and the GI50 (KM12 colon) was 0.283 µM. It also gave a TGI (KM12 colon) of 0.929 µM, a GI50 (COLO 205 colon) of 0.17 µM and a TGI (COLO 205 colon) of 0.312 µM. For the same molecule, the GI50 (SK-OV-3 ovarian) was 0.314 µM, the TGI (SK-OV-3 ovarian) was 0.992 µM and the GI50 (RXF 393 renal) was 0.405 µM. For the same molecule, the TGI (RXF 393 renal) was 1.61 µM.

`CCN(CC)CCCNc1[nH]ncc2c(C)c3nc4ccccc4c3cc12` was tested, and the GI50 (SF-539 CNS) was 0.373 µM, the TGI (SF-539 CNS) was 1.81 µM and 6.09 µM and the TGI (HL-60(TB) leukemia) was 1.89 µM. For the same molecule, the GI50 (SN12C renal) was 0.585 µM, the TGI (SN12C renal) was 3.87 µM and 3.6 µM and the GI50 (HCC-2998 colon) was 0.375 µM. For the same molecule, the TGI (HCC-2998 colon) was 2.12 µM and 3.06 µM, the GI50 (KM12 colon) was 0.355 µM and the TGI (KM12 colon) was 1.47 µM and 6.75 µM. For the same molecule, the GI50 (COLO 205 colon) was 0.49 µM, the TGI (COLO 205 colon) was 1.75 µM and 3.23 µM and the GI50 (SK-OV-3 ovarian) was 1.31 µM. For the same molecule, the TGI (SK-OV-3 ovarian) was 2.75 µM and 12.6 µM, the GI50 (RXF 393 renal) was 0.878 µM and the TGI (RXF 393 renal) was 2.25 µM and 5.78 µM.

In the case of `O=C(NC(=O)c1cc2cc(Br)cc(Br)c2oc1=O)Oc1ccccc1`, the TGI (SF-539 CNS) is reported as over 100 µM, the TGI (SNB-78 CNS) is reported as over 100 µM and the TGI (SN12C renal) is reported as over 100 µM. The TGI (DMS 273 small cell lung) was over 100 µM, the TGI (HCC-2998 colon) was over 100 µM and the TGI (KM12 colon) was over 100 µM. For the same molecule, the TGI (COLO 205 colon) was over 100 µM, the TGI (SK-OV-3 ovarian) was over 100 µM and the TGI (RXF 393 renal) was 83.3 µM.

`Oc1c2c(c(O)c3ccccc13)C1(N=N2)c2ccccc2Oc2ccccc21` was tested, and the TGI (SF-539 CNS) was 20.2 µM, the TGI (HL-60(TB) leukemia) was 62.1 µM and the TGI (SN12C renal) was 27 µM. The TGI (HCC-2998 colon) was 38.7 µM, the TGI (KM12 colon) was 38.6 µM and the TGI (COLO 205 colon) was 28 µM. It also gave a TGI (SK-OV-3 ovarian) of 31.4 µM and a TGI (RXF 393 renal) of 4.65 µM.

`Cc1ccc2c(CC(=O)O)cc(=O)oc2c1` gave a TGI (SF-539 CNS) of over 100 µM, a TGI (HL-60(TB) leukemia) of over 100 µM and a TGI (SN12C renal) of over 100 µM. The TGI (DMS 273 small cell lung) was over 100 µM, the TGI (HCC-2998 colon) was over 100 µM and the TGI (KM12 colon) was over 100 µM. It also gave a TGI (COLO 205 colon) of over 100 µM, a TGI (SK-OV-3 ovarian) of over 100 µM and a TGI (RXF 393 renal) of over 100 µM.

`CC(=O)/C(=C\c1c(-c2ccccc2)[nH]c2ccccc12)S(=O)(=O)c1ccccc1` showed a GI50 (SF-539 CNS) of 1.31 µM, a TGI (SF-539 CNS) of 3.08 µM and a GI50 (HL-60(TB) leukemia) of 1.69 µM. For the same molecule, the TGI (HL-60(TB) leukemia) was 5.28 µM, the GI50 (SN12C renal) was 1.82 µM and the TGI (SN12C renal) was 9.59 µM. The GI50 (HCC-2998 colon) was 1.38 µM, the TGI (HCC-2998 colon) was 2.78 µM and the GI50 (KM12 colon) was 1.01 µM. For the same molecule, the TGI (KM12 colon) was 2.65 µM, the GI50 (COLO 205 colon) was 1.54 µM and the TGI (COLO 205 colon) was 5.62 µM. The GI50 (SK-OV-3 ovarian) was 2.81 µM, the TGI (SK-OV-3 ovarian) was 19.4 µM and the GI50 (RXF 393 renal) was 1.25 µM. For the same molecule, the TGI (RXF 393 renal) was 2.8 µM.

`CC1(C)N=C(N)N=C(N)N1c1ccc(Cl)c(Cl)c1` was tested, and the GI50 (SF-539 CNS) was 0.201 µM, the TGI (SF-539 CNS) was over 54 µM and the GI50 (HL-60(TB) leukemia) was 6.27 µM. The TGI (HL-60(TB) leukemia) was over 100 µM, the GI50 (SN12C renal) was 0.694 µM and the TGI (SN12C renal) was over 100 µM. It also gave a GI50 (HCC-2998 colon) of 0.508 µM, a TGI (HCC-2998 colon) of over 40.7 µM and a GI50 (KM12 colon) of 0.648 µM. It also gave a TGI (KM12 colon) of over 100 µM, a GI50 (COLO 205 colon) of 3.56 µM and a TGI (COLO 205 colon) of over 100 µM. It also gave a GI50 (SK-OV-3 ovarian) of 0.83 µM, a TGI (SK-OV-3 ovarian) of over 100 µM and a GI50 (RXF 393 renal) of 29.1 µM. For the same molecule, the TGI (RXF 393 renal) was over 100 µM.
